Our source for the IC50 and Emax values is patent US20250026721A1, “COMPOUNDS AND METHODS FOR MODULATING RAS-PI3K” (Vividion Therapeutics, Inc., priority 2023, published 2025).

Experiment [1] concerns pAKT(S473) in FaDu cell line. The experiment in a line: In vitro Phospho-AKT(S473) HTRF analysis in FaDu cells. The class given is cell-based. The note with it: Homo sapiens, 0.5 h; for IC50: FaDu cells, 30 minutes at 37° C.; for Emax: FaDu, read-out: FaDu pAKT Imax % control. How it is done: Example 5. In Vitro Phosgho-AKT(S473) Analysis
Functional activity of the compounds to inhibit pAKT were assessed in FaDu or H358 cell lines as indicated below.
• Complete Media • FBS, Corning catalog #35-010-CV • Anti-Anti, Gibco catalog #15240-062 • 96 well plate, Corning catalog #3610 • TrypLE, Gibco catalog #12604013 • Phospho-AKT(S473) HTRF kit, Cisbio catalog #64AKSPET
Cells were detached from the tissue culture flask with TrypLE. The cells were pelleted at 500×g for 5 min, TrypLe was removed and then resuspended in the necessary volume of media+1% FBS to give the appropriate cell density (17,500 cells/mL for FaDu; 20,000 cells/mL for H358). 100 μL of cell suspension/well was dispensed into the 96-well plate while keeping the outer wells of the plate free of cells and filled with PBS to prevent evaporation of interior wells. The plate was incubated at 37° C. and allowed to adhere overnight. The cells were treated with a dose response of compound and incubated at 37° C. for 30 minutes. The cells were then processed and pAKT(S473) levels were assessed following the specifications of the Cisbio HTRF kit.
(In general: In TR-FRET formats the signal depends on donor and acceptor labels being close together.)

The target in experiment [2] is T1, PIK3CA (Homo sapiens, UniProt P42336).
T1 construct: endogenous in cells; host or cells: Jurkat cell lysate
In words: In vitro ELISA target engagement assay for PIK3CA in Jurkat cellular lysate (competition with PIK3CA Biotin Probe). The note with it: 1 hour at rt, then 500 nM PIK3CA Biotin Probe, read-out: Elisa Target Engagement Assay (TE50). The class given is binding. In outline: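 Competition format in Jurkat lysate: compound (serial dilutions, top 200 μM) for 1 h at rt, then 500 nM final biotinylated PIK3CA probe for 1 h at rt. Sandwich ELISA with capture antibody and Neutravidin-HRP luminescence read-out measured probe-labelled PIK3CA, giving TE50.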
A general note: ELISA stands for enzyme-linked immunosorbent assay.

T1 sequence (P42336 whole entry): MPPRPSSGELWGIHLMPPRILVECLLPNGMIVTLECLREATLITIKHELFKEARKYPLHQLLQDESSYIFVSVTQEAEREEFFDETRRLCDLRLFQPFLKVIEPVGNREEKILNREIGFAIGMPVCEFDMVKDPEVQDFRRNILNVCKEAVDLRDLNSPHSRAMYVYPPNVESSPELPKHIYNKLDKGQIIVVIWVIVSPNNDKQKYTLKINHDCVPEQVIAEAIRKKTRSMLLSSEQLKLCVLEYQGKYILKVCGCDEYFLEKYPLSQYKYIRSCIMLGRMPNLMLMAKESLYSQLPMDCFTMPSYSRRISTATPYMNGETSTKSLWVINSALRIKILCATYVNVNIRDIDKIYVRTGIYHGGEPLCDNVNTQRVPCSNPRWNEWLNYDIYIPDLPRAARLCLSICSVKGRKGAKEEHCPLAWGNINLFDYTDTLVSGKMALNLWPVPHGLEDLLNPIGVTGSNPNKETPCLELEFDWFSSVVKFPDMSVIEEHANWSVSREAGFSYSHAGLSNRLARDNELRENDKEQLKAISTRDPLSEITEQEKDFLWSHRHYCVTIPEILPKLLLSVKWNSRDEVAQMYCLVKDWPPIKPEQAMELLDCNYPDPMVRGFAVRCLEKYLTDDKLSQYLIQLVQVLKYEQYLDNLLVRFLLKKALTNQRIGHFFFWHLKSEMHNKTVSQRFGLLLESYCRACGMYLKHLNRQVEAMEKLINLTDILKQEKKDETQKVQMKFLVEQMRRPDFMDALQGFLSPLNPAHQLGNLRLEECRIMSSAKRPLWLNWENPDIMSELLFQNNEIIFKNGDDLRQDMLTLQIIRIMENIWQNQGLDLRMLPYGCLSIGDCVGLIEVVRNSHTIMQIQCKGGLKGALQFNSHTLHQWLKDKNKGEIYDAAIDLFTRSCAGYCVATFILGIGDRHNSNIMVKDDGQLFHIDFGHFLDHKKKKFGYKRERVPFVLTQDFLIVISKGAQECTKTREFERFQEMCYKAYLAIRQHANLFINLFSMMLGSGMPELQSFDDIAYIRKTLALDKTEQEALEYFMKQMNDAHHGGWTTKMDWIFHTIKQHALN
T1 sequence (P27986 whole entry partner): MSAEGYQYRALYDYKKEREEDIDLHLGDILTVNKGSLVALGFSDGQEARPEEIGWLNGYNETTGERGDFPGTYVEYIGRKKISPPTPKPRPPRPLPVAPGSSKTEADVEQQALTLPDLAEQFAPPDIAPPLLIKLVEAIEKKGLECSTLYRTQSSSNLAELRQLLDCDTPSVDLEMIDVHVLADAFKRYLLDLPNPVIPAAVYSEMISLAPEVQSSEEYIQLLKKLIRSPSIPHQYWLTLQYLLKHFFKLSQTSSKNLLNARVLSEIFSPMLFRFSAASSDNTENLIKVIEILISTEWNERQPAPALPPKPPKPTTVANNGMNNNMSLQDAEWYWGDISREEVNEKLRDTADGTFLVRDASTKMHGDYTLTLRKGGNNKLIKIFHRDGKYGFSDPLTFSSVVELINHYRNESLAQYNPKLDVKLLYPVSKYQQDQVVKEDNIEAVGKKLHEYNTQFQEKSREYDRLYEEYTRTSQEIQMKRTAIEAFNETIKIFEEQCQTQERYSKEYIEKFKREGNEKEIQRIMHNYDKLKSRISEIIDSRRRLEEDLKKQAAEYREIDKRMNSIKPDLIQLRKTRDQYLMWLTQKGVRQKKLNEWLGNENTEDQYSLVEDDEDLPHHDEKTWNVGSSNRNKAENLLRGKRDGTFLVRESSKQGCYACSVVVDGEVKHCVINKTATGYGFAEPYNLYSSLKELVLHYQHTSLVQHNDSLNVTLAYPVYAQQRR

In the case of `COc1ccc(S(=O)(=O)N2CCC[C@](F)(C(=O)N[C@H](C)/C=C\S(C)(=O)=O)CC2)c(-c2ccccc2Cl)c1` [Compound 312, (R)-1-((2′-chloro-5-methoxy-[1,1′-biphenyl]-2-yl)sulfonyl)-4-fluoro-N-((R,Z)-4-(methylsulfonyl)but-3-en-2-yl)azepane-4-carboxamide], the IC50 in experiment [1] came out at 140 nM; in experiment [2], 80 nM.

As to `C[C@@H](NC(=O)C1(F)CCN(S(=O)(=O)c2ccc(Br)cc2-c2ccccc2Cl)CC1)C1=CS(=O)(=O)C1` (single isomer, unassigned) [Compound 234, (*R)-1-((5-bromo-2′-chloro-[1,1′-biphenyl]-2-yl)sulfonyl)-N-(1-(1,1-dioxido-2H-thiet-3-yl)ethyl)-4-fluoropiperidine-4-carboxamide], the IC50 came to 100 nM in experiment [1] and 140 nM in experiment [2].

Turning to `C[C@H](/C=C/C(=O)N1CC(F)(F)C1)NC(=O)[C@]1(F)CCN(S(=O)(=O)c2ccc(OC(F)F)cc2-c2ccccc2Cl)[C@H](C)C1` [Compound 251, (2R,4S)-1-((2′-chloro-5-(difluoromethoxy)-[1,1′-biphenyl]-2-yl)sulfonyl)-N-((R,E)-5-(3,3-difluoroazetidin-1-yl)-5-oxopent-3-en-2-yl)-4-fluoro-2-methylpiperidine-4-carboxamide], in experiment [1], the IC50 was determined as 249 nM and the Emax came out at 102%. Further, the IC50 in experiment [2] was 260 nM.

Turning to `Cc1ccc(Cl)c([C@@H]2CN(CC(F)(F)F)C[C@@H]2C(=O)N2CCC[C@](F)(C(=O)N[C@H](C)/C=C\S(C)(=O)=O)CC2)c1` (single isomer, unassigned) [Compound 170, (R)-1-((3*R,4*R)-4-(2-chloro-5-methylphenyl)-1-(2,2,2-trifluoroethyl)pyrrolidine-3-carbonyl)-4-fluoro-N-((R,Z)-4-(methylsulfonyl)but-3-en-2-yl)azepane-4-carboxamide], the IC50 in experiment [1] stood at 484 nM; in experiment [2], 760 nM. The Emax in experiment [1] is 83.2%.

Turning to `C[C@H](/C=C\S(C)(=O)=O)NC(=O)[C@@]1(F)CCCN(C(=O)[C@H]2CN(CC(F)(F)F)C[C@H]2c2cc(F)ccc2Cl)CC1` (single isomer, unassigned) [Compound 166, (R)-1-((3*R,4*R)-4-(2-chloro-5-fluorophenyl)-1-(2,2,2-trifluoroethyl)pyrrolidine-3-carbonyl)-4-fluoro-N-((R,Z)-4-(methylsulfonyl)but-3-en-2-yl)azepane-4-carboxamide], in experiment [1], the IC50 is 187 nM and the Emax was 78.9%. For the same compound, the IC50 in experiment [2] came out at 300 nM.

As to `C[C@H]1C[C@](F)(C(=O)N[C@@H]2C=CS(=O)(=O)C2)CCN1C(=O)[C@H]1CN(CC(F)(F)F)C[C@H]1c1ccccc1Cl` (single isomer, unassigned) [Compound 174, (2*S,4*S)-1-((3R,4R)-4-(2-chlorophenyl)-1-(2,2,2-trifluoroethyl)pyrrolidine-3-carbonyl)-N-((R)-1,1-dioxido-2,3-dihydrothiophen-3-yl)-4-fluoro-2-methylpiperidine-4-carboxamide], in experiment [1], the IC50 was found to be 168 nM and the Emax turned out to be 91.8%. Moreover, the IC50 in experiment [2] is 276 nM.

For `C[C@H](/C=C\S(C)(=O)=O)NC(=O)[C@@]1(F)CCCN(C(=O)[C@H]2CN(CC(F)(F)F)C[C@H]2c2ccc(F)cc2Cl)CC1` (single isomer, unassigned) [Compound 167, (R)-1-((3*R,4*R)-4-(2-chloro-4-fluorophenyl)-1-(2,2,2-trifluoroethyl)pyrrolidine-3-carbonyl)-4-fluoro-N-((R,Z)-4-(methylsulfonyl)but-3-en-2-yl)azepane-4-carboxamide], in experiment [1], the IC50 came to 518 nM and the Emax is 93.6%. Further, the IC50 in experiment [2] turned out to be 580 nM.

For `O=C(/C=C/CNC(=O)C1(F)CCN(S(=O)(=O)c2ccc(Br)cc2-c2ccccc2Cl)CC1)N1CC(F)(F)C1` [Compound 282, (E)-1-((5-bromo-2′-chloro-[1,1′-biphenyl]-2-yl)sulfonyl)-N-(4-(3,3-difluoroazetidin-1-yl)-4-oxobut-2-en-1-yl)-4-fluoropiperidine-4-carboxamide], the IC50 in experiment [1] came out at 367 nM; in experiment [2], 140 nM.

On to `CC(C)(/C=C/C(=O)N1CC(F)(F)C1)NC(=O)C1(F)CCN(S(=O)(=O)c2ccc(C(F)(F)F)cc2-c2ccccc2Cl)CC1` [Compound 249, (E)-1-((2′-chloro-5-(trifluoromethyl)-[1,1′-biphenyl]-2-yl)sulfonyl)-N-(5-(3,3-difluoroazetidin-1-yl)-2-methyl-5-oxopent-3-en-2-yl)-4-fluoropiperidine-4-carboxamide], for which, in experiment [1], the IC50 is 1200 nM and the Emax was found to be 82.8%. The IC50 in experiment [2] came to 620 nM.

As for `C[C@H](/C=C/C(=O)N1CC(F)(F)C1)NC(=O)C1(F)CCN(S(=O)(=O)c2cnc(C(F)(F)F)cc2-c2ccccc2Cl)CC1` [Compound 213, (R,E)-1-((4-(2-chlorophenyl)-6-(trifluoromethyl)pyridin-3-yl)sulfonyl)-N-(5-(3,3-difluoroazetidin-1-yl)-5-oxopent-3-en-2-yl)-4-fluoropiperidine-4-carboxamide], the IC50 in experiment [1] was 291 nM; in experiment [2], 230 nM. Moreover, in experiment [1], the Emax was 90.8%.

With `C[C@H](/C=C/S(C)(=O)=O)NC(=O)[C@@]1(F)CCCN(C(=O)[C@H]2CN(CC(F)(F)F)C[C@H]2c2ccccc2Cl)CC1` [Compound 177, (R)-1-((3R,4R)-4-(2-chlorophenyl)-1-(2,2,2-trifluoroethyl)pyrrolidine-3-carbonyl)-4-fluoro-N-((R,E)-4-(methylsulfonyl)but-3-en-2-yl)azepane-4-carboxamide], in experiment [1], the IC50 came to 672 nM and the Emax is 69.5%. For the same compound, the IC50 in experiment [2] stood at 790 nM.

Consider `C[C@H](/C=C\S(C)(=O)=O)NC(=O)[C@]1(F)CCN(S(=O)(=O)c2ccc(Br)cc2-c2cccc(Cl)c2)[C@H](C)C1` [Compound 145, (2R,4S)-1-((5-bromo-3′-chloro-[1,1′-biphenyl]-2-yl)sulfonyl)-4-fluoro-2-methyl-N-((R,Z)-4-(methylsulfonyl)but-3-en-2-yl)piperidine-4-carboxamide], for which, in experiment [1], the IC50 came to 131 nM and the Emax was found to be 102%. Further, the IC50 in experiment [2] was determined as 270 nM.

Take `C[C@H](/C=C\S(=O)(=O)[C@@H]1CCN(C)C1)NC(=O)C1(F)CCN(S(=O)(=O)c2ccc(Br)cc2-c2ccccc2Cl)CC1` (single isomer, unassigned) [Compound 237, 1-((5-bromo-2′-chloro-[1,1′-biphenyl]-2-yl)sulfonyl)-4-fluoro-N-((R,Z)-4-(((*R)-1-methylpyrrolidin-3-yl)sulfonyl)but-3-en-2-yl)piperidine-4-carboxamide]: the IC50 in experiment [1] came out at 73.6 nM; in experiment [2], 55 nM.

`C[C@H](/C=C\S(C)(=O)=O)NC(=O)C1(F)CCN(S(=O)(=O)c2ccc(Br)cc2-c2cccc(Br)c2)CC1` [Compound 58, (R,Z)-1-((3′,5-dibromo-[1,1′-biphenyl]-2-yl)sulfonyl)-4-fluoro-N-(4-(methylsulfonyl)but-3-en-2-yl)piperidine-4-carboxamide]: in experiment [1], the IC50 came to 743 nM and the Emax is 97.5%. The IC50 in experiment [2] came out at 850 nM.

`C[C@H](/C=C\S(C)(=O)=O)NC(=O)[C@@]1(F)CCCN(C(=O)[C@H]2CN(CC(C)(F)F)C[C@H]2c2ccccc2Cl)CC1` [Compound 180, (R)-1-((3R,4R)-4-(2-chlorophenyl)-1-(2,2-difluoropropyl)pyrrolidine-3-carbonyl)-4-fluoro-N-((R,Z)-4-(methylsulfonyl)but-3-en-2-yl)azepane-4-carboxamide]: in experiment [1], the IC50 was 136 nM and the Emax turned out to be 96.9%. In addition, the IC50 in experiment [2] came to 127 nM.

On to `CCOc1ccc(S(=O)(=O)N2CC[C@@](F)(C(=O)N[C@H](C)/C=C/C(=O)N3CC(F)(F)C3)C[C@H]2C)c(-c2ccccc2Cl)c1` [Compound 298, (2R,4S)-1-((2′-chloro-5-ethoxy-[1,1′-biphenyl]-2-yl)sulfonyl)-N-((R,E)-5-(3,3-difluoroazetidin-1-yl)-5-oxopent-3-en-2-yl)-4-fluoro-2-methylpiperidine-4-carboxamide], for which, in experiment [1], the IC50 stood at 322 nM and the Emax worked out at 102%. For the same compound, in experiment [2], the IC50 is 720 nM.

For the compound `C[C@H](/C=C\S(C)(=O)=O)NC(=O)[C@]1(F)CCN(S(=O)(=O)c2ccc(Br)cc2-c2ccccc2Cl)[C@H](C)C1` [Compound 143, (2R,4S)-1-((5-bromo-2′-chloro-[1,1′-biphenyl]-2-yl)sulfonyl)-4-fluoro-2-methyl-N-((R,Z)-4-(methylsulfonyl)but-3-en-2-yl)piperidine-4-carboxamide], in experiment [1], the IC50 amounted to 117 nM and the Emax is 111%. The IC50 in experiment [2] was determined as 66.5 nM.
